# Laboratory results from patent publication US8044053B2, “Sulfonamide substituted pyrazoline compounds, their preparation and use as CB1 modulators” (Laboratories del Dr. Esteve, S.A., priority 2006, dated 2011).
# Assays:
# [1] = biological target: CB1-receptor (UniProt P20272); experiment: In-vitro determination of affinity (binding) to CB1-receptors, radioligand [3H]-CP55940; design: IC50; Ki; species or system human or rat; conditions: Pharmacological Methods Part I
# Description: (§1) I. In-Vitro Determination of Affinity to CB1/CB2-Receptors
# (§2) The in-vitro determination of the affinity of the inventive substituted pyrazoline compounds to CB1/CB2-Rezeptors is carried out as described in the publication of Ruth A. Ross, Heather C. Brockie et al., “Agonist-inverse agonist characterisation at CB1 and CB2 cannabinoid receptors of L-759633, L759656 and AM630”, British Journal of Pharmacology, 126, 665-672, (1999), whereby the transfected human CB1 and CB2 receptors of Receptor Biology, Inc. are used. The radioligand used for both receptors is [^3H]-CP55940. The respective parts of the description is hereby incorporated by reference and forms part of the present disclosure.
# (§3) Rat Cerebellum CB1 Binding
# (§4) Binding affinity to CB1 receptor was evaluated according to a modification of the method described by Govaerts et al., Eur J Pharmac Sci 23, 233-243 (2004). The respective parts of the description is hereby incorporated by reference and forms part of the present disclosure.
# (§5) Briefly, cerebellum from male wistar rats (250-300 g) were carefully dissected on ice and homogenates were prepared with Potter-Helveheim in a cold 50 mM Tris-HCl solution containing 5 mM MgCl2, 1 mM EDTA and 0.25 M sucrose, pH 7.4. The suspension was centrifuged at 1,000×g for 5 minutes. The supernatants were collected and centrifuged 50,000×g for 15 minutes. The resulting pellets were then resuspended in Tris-HCl buffer without sucrose, homogenised and incubated for 15 min at 37° C. in an orbital shaker bath and centrifuged again at 50,000×g for 15 min. Pellets were weighted, resuspended in Tris-HCl buffer without sucrose, homogenised with Ultraturrax at 13,500 rpm for 3×5 seconds and alicuoted in 0.9 ml volumes in Eppendorf tubes. Alicuotes were centrifuged at 20,800×g for 5 minutes, supernatants discarded and pellets were frozen at −80° C. until use. Total protein concentration was determined using the Bio-Rad Lowry method based kit. Competitive binding experiments were performed in presence of 1 nM [^3H]-CP 55,940 in siliconised glass tubes containing 100 μg protein/tube resuspended in 1 ml final volume of 50 mM Tris-HCl, 5 mM MgCl2, 1 mM EDTA, 0.5% (w/v) bovine serum albumin, pH 7.4. Compounds were present at various concentrations and the non specific binding was determined in the presence of 10 μM HU-210. After 1 hour incubation at 30° C., the suspension was rapidly filtered through 0.5% PEI pre-treated GF/B fiber filters on a 96-well harvester and washed 3 times with 3 ml ice-cold binding buffer without bovine serum albumin. Radioactivity on filters was measured with Wallac Winspectral 1414 counter by liquid scintillation in 6 ml Ecoscint H (National Diagnostics, U.K.). Assays were made in triplicates.
# (§6) Binding data were analysed by non-linear regression with the software GraphPad Prism Version 3.03.
# (§7) The binding of the pyrazoline compounds of general formulae I, Ia and Ib to CB1-receptors was determined according to the method described in the section Pharmacological Methods, Part I.
# [2] = biological target: CB1-receptor (UniProt P20272); experiment: as above; design: % inh; 10^−7 M; compound at 10^−7 M; species or system human or rat; conditions: compound at 10^−7 M
# Description: as §1, §2, §3, §4, §5, §6, §7
SMILES,IC50 [1] [nM],% inh. 10^−7 M [2] [%],Ki [1] [nM]
"O=S(=O)(Cc1ccccc1)NCC1=NN(c2ccc(Cl)cc2Cl)C(c2ccc(Cl)cc2)C1 (stereo not drawn) [Example 12, N-[5-(4-Chloro-phenyl)-1-(2,4-dichloro-phenyl)-4,5-dihydro-1H-pyrazol-3-ylmethyl]-C-phenyl-methanesulfonamide]",130,39.4,
"CCS(=O)(=O)NCC1=NN(c2ccc(Cl)cc2Cl)C(c2ccc(Cl)cc2)C1 (stereo not drawn) [Example 14, Ethanesulfonic acid [5-(4-chloro-phenyl)-1-(2,4-dichloro-phenyl)-4,5-dihydro-1H-pyrazol-3-ylmethyl]-amide]",458,76.6,
"Cc1cc(S(=O)(=O)NCC2=NN(c3ccc(Cl)cc3Cl)C(c3ccc(Cl)cc3)C2)c(C)cc1Cl (stereo not drawn) [Example 39, 4-Chloro-N-[5-(4-chloro-phenyl)-1-(2,4-dichloro-phenyl)-4,5-dihydro-1H-pyrazol-3-ylmethyl]-2,5-dimethyl-benzenesulfonamide]",20.6,53.2,
"Cc1ccc(C)c(S(=O)(=O)NCC2=NN(c3ccc(Cl)cc3Cl)C(c3ccc(Cl)cc3)C2)c1 (stereo not drawn) [Example 44, N-[5-(4-Chloro-phenyl)-1-(2,4-dichloro-phenyl)-4,5-dihydro-1H-pyrazol-3-ylmethyl]-2,5-dimethyl-benzenesulfonamide]",15,54.1,7.3
"Cc1cccc(Cl)c1S(=O)(=O)NCC1=NN(c2ccc(Cl)cc2Cl)C(c2ccc(Cl)cc2)C1 (stereo not drawn) [Example 34, 2-Chloro-N-[5-(4-chloro-phenyl)-1-(2,4-dichloro-phenyl)-4,5-dihydro-1H-pyrazol-3-ylmethyl]-6-methyl-benzenesulfonamide]",14.1,53.8,
"O=S(=O)(NCC1=NN(c2ccc(Cl)cc2Cl)C(c2ccc(Cl)cc2)C1)c1cccc(Cl)c1 (stereo not drawn) [Example 1, 3-Chloro-N-[5-(4-chloro-phenyl)-1-(2,4-dichloro-phenyl)-4,5-dihydro-1H-pyrazol-3-ylmethyl]-benzenesulfonamide]",388,27.1,
"Cc1cc(C)c(S(=O)(=O)NCC2=NN(c3ccc(Cl)cc3Cl)C(c3ccc(Cl)cc3)C2)c(C)c1 (stereo not drawn) [Example 40, N-[5-(4-Chloro-phenyl)-1-(2,4-dichloro-phenyl)-4,5-dihydro-1H-pyrazol-3-ylmethyl]-2,4,6-trimethyl-benzenesulfonamide]",97,51.9,43.9
"CCCS(=O)(=O)NCC1=NN(c2ccc(Cl)cc2Cl)C(c2ccc(Cl)cc2)C1 (stereo not drawn) [Example 21, Propane-1-sulfonic acid [5-(4-chloro-phenyl)-1-(2,4-dichloro-phenyl)-4,5-dihydro-1H-pyrazol-3-ylmethyl]-amide]",263,80.6,

# Continued by falling IC50 [1], values first:
IC50 [1] [nM],% inh. 10^−7 M [2] [%],Ki [1] [nM],SMILES
184,11.9,,"CC1(C)C2CCC1(CS(=O)(=O)NCC1=NN(c3ccc(Cl)cc3Cl)C(c3ccc(Cl)cc3)C1)C(=O)C2 (stereo not drawn) [Example 7, N-[5-(4-Chloro-phenyl)-1-(2,4-dichloro-phenyl)-4,5-dihydro-1H-pyrazol-3-ylmethyl]-C-(7,7-dimethyl-2-oxo-bicyclo[2.2.1]hept-1-yl)-methanesulfonamide]"
140,26.1,,"O=S(=O)(NCC1=NN(c2ccc(Cl)cc2Cl)C(c2ccc(Cl)cc2)C1)c1cccc(C(F)(F)F)c1 (stereo not drawn) [Example 18, N-[5-(4-Chloro-phenyl)-1-(2,4-dichloro-phenyl)-4,5-dihydro-1H-pyrazol-3-ylmethyl]-3-trifluoromethyl-benzenesulfonamide]"
121,20.0,,"O=S(=O)(NCC1=NN(c2ccc(Cl)cc2Cl)C(c2ccc(Cl)cc2)C1)C1=C(Cl)NC2SC=CN12 (stereo not drawn) [Example 32, 6-Chloro-7,7a-dihydro-imidazo[2,1-b]thiazole-5-sulfonic acid [5-(4-chloro-phenyl)-1-(2,4-dichloro-phenyl)-4,5-dihydro-1H-pyrazol-3-ylmethyl]-amide]"
67.7,54.3,30.6,"O=S(=O)(NCC1=NN(c2ccc(Cl)cc2Cl)C(c2ccc(Cl)cc2)C1)c1ccsc1 (stereo not drawn) [Example 9, Thiophene-3-sulfonic acid [5-(4-chloro-phenyl)-1-(2,4-dichloro-phenyl)-4,5-dihydro-1H-pyrazol-3-ylmethyl]-amide]"
